Experiments:
Assay type in all cases: physicochemical
[1] = Lyophilized preparations with Polysorbate 20 alone: re-solubility immediately after lyophilization; settings: KRN7000 200 µg/ml, no excipient, reconstituted in 1 ml distilled water for injection
Method: (§1) Next, 20 mg of the active component (KRN7000) was weighed and stirred in 100 ml of the Polysorbate solutions having a variety of concentrations in a heated bath to 80°C for 20 minutes in order to form a solution. After cooling with running water, the mixture was filtered through a 0.22 µm filter, and transparent colorless glass vials having a volume of 5 ml were charged with a 1 ml portion of each of a variety of solutions and subjected to lyophilizaiton. Lyophilization was carried out under the condition of preliminary freezing at -40°C for 2 hours and drying at -20°C for 24 hours, 10°C for 12 hours, and finally at 25°C for 5 hours to give the lyophilized product. The degree of vacuum was set at 0.1 Torr or less during drying step.
After the lyophilization step, the lyophilized composition was reconstituted in 1 ml of distilled water for injection, left standing for 30 minutes, and solubility was judged when the foams generated on reconstituiton disappeared.
(§2) The solubility was judged by cleaning the outside of the vial and placing it beneath the white light source in a darkroom for observation with naked eye at the position of a luminous intensity of about 5,000 lux. When the sample was clear with no precipitates, it was judged that the active component was dissolved.

[2] = Additives for improving re-solubility during storage, sucrose as excipient; settings: lyophilized, KRN7000 200 µg/ml, Polysorbate 20 0.5%, Sucrose 9.6%
Method: as §1, with “First, Polysorbate 20 was dissolved in distilled water in a concentration of 0.5%, and sucrose and a variety of additives such concentrations as listed in Table 9. Next,” for “Next,”, “solvents” for “Polysorbate solutions having a variety of concentrations”, “solutions thus obtained” for “solutions”, “lyophilization.” for “lyophilizaiton.”
After the lyophilization step, the lyophilized composition thus obtained was stored at 25°C or 50°C, or at both of these temperatures. After storage at 25°C for 1 month or at 50°C for 3 days, the lyophilized composition was reconstituted in 1 ml of distilled water for injection, left standing for 30 minutes, and solubility was judged when the foams generated on reconstitution disappeared. The samples judged in solution were further stored, and judged again of their solubility after storage at 25°C for 4 months or at 50°C for 2 weeks.
as §2

[3] = Optimal formulation: re-solubility after storage; settings: lyophilized, KRN7000 200 µg/ml, Polysorbate 20 0.5%
Method: as §1, with “First, Polysorbate 20 was dissolved in distilled water in a concentration of 0.5%, and sucrose and histidine or sodium deoxycholate in such concentrations listed on Table 11. Next,” for “Next,”, “solvents” for “Polysorbate solutions having a variety of concentrations”, “solutions thus obtained” for “solutions”, “lyophilization.” for “lyophilizaiton.”
After the lyophilization step, the lyophilized composition thus obtained was stored at 25°C or 50°C. After storage at 25°C for 2 months or at 50°C for 2 weeks, the lyophilized composition was reconstituted in 1 ml of distilled water for injection, left standing for 30 minutes, and solubility was judged when the foams generated on reconstitution disappeared. The samples judged to be solution after storage at 25°C for 2 months were further stored, and judged again of their solubility after storage for 4 months.
as §2

With `CCCCCCCCCCCCCCCCCCCCCCCCCC(=O)N[C@@H](CO[C@H]1O[C@H](CO)[C@H](O)[C@H](O)[C@H]1O)[C@H](O)[C@H](O)CCCCCCCCCCCCCC` [KRN7000, (2S,3S,4R)-1-(α-D-galactopyranosyloxy)-2-hexacosanoylamino-3,4-octadecanediol] the “Re-solubility immediately after lyophilization (by naked eye)” value (from here on “Re-solubility immediately”) ([1]; Polysorbate 20 0.5%) was “+ (+ not dissolved (or deposited))”, the “Re-solubility immediately” value ([1]; Polysorbate 20 1.0%) was “+ (+ not dissolved (or deposited))” and the “Re-solubility immediately” value ([1]; Polysorbate 20 2.0%) was “+ (+ not dissolved (or deposited))”. The “Re-solubility after storage (by naked eye)” value (from here on “Re-solubility after storage”) ([2]; Arginine, 0.1%, 50°C, 3 days) was “+ (+ not dissolved (or deposited))”, the “Re-solubility after storage” value ([2]; Glycerol, 1%, 25°C, 1 month) was “+ (+ not dissolved (or deposited))” and the “Re-solubility after storage” value ([2]; Glycine, 0.1%, 50°C, 3 days) was “+ (+ not dissolved (or deposited))”. For the same compound, the “Re-solubility after storage” value ([2]; Glycine, 1%, 50°C, 3 days) was “+ (+ not dissolved (or deposited))”, the “Re-solubility after storage” value ([2]; Histidine, 2%, 50°C, 2 weeks) was “- (- dissolved)” and the “Re-solubility after storage” value ([2]; Histidine, 2%, 50°C, 3 days) was “- (- dissolved)”. For the same compound, the “Re-solubility after storage” value ([2]; Pluronic F68, 0.1%, 25°C, 1 month) was “- (- dissolved)”, the “Re-solubility after storage” value ([2]; Pluronic F68, 0.1%, 25°C, 4 month) was “+ (+ not dissolved (or deposited))” and the “Re-solubility after storage” value ([2]; Pluronic F68, 1%, 25°C, 1 month) was “- (- dissolved)”. The “Re-solubility after storage” value ([2]; Pluronic F68, 1%, 25°C, 4 month) was “+ (+ not dissolved (or deposited))”, the “Re-solubility after storage” value ([2]; Propylene glycol, 1%, 25°C, 1 month) was “+ (+ not dissolved (or deposited))” and the “Re-solubility after storage” value ([2]; Sodium deoxycholate, 0.1%, 25°C, 1 month) was “- (- dissolved)”. For the same compound, the “Re-solubility after storage” value ([2]; Sodium deoxycholate, 0.1%, 25°C, 4 month) was “+ (+ not dissolved (or deposited))”, the “Re-solubility after storage” value ([2]; Sodium deoxycholate, 1%, 25°C, 1 month) was “- (- dissolved)” and the “Re-solubility after storage” value ([2]; Sodium deoxycholate, 1%, 25°C, 4 month) was “- (- dissolved)”. For the same compound, the “Re-solubility after storage” value ([2]; Sodium deoxycholate, 1%, 50°C, 2 weeks) was “- (- dissolved)”, the “Re-solubility after storage” value ([2]; Sodium deoxycholate, 1%, 50°C, 3 days) was “- (- dissolved)” and the “Re-solubility after storage” value ([2]; no additive, 25°C, 1 month) was “- (- dissolved)”. For the same compound, the “Re-solubility after storage” value ([2]; no additive, 25°C, 4 month) was “+ (+ not dissolved (or deposited))”, the “Re-solubility after storage” value ([2]; no additive, 50°C, 3 days) was “+ (+ not dissolved (or deposited))” and the “Re-solubility after storage” value ([3]; Sucrose 1.1%, Histidine, 4%, 50°C, 2 weeks) was “+ (+ not dissolved (or deposited))”. For the same compound, the “Re-solubility after storage” value ([3]; Sucrose 3.1%, Histidine, 3%, 50°C, 2 weeks) was “- (- dissolved)”, the “Re-solubility after storage” value ([3]; Sucrose 3.2%, Histidine, 2%, 50°C, 2 weeks) was “- (- dissolved)” and the “Re-solubility after storage” value ([3]; Sucrose 4.8%, Sodium deoxycholate, 0.2%, 25°C, 2 months) was “+ (+ not dissolved (or deposited))”. For the same compound, the “Re-solubility after storage” value ([3]; Sucrose 4.8%, Sodium deoxycholate, 0.5%, 25°C, 2 months) was “- (- dissolved)”, the “Re-solubility after storage” value ([3]; Sucrose 4.8%, Sodium deoxycholate, 0.5%, 25°C, 4 months) was “- (- dissolved)” and the “Re-solubility after storage” value ([3]; Sucrose 4.8%, Sodium deoxycholate, 1%, 25°C, 2 months) was “- (- dissolved)”. For the same compound, the “Re-solubility after storage” value ([3]; Sucrose 4.8%, Sodium deoxycholate, 1%, 25°C, 4 months) was “- (- dissolved)”, the “Re-solubility after storage” value ([3]; Sucrose 4.8%, Sodium deoxycholate, 2%, 25°C, 2 months) was “- (- dissolved)” and the “Re-solubility after storage” value ([3]; Sucrose 4.8%, Sodium deoxycholate, 2%, 25°C, 4 months) was “- (- dissolved)”. For the same compound, the “Re-solubility after storage” value ([3]; Sucrose 5.0%, Histidine, 2%, 50°C, 2 weeks) was “- (- dissolved)”, the “Re-solubility after storage” value ([3]; Sucrose 5.1%, Histidine, 1%, 50°C, 2 weeks) was “- (- dissolved)” and the “Re-solubility after storage” value ([3]; Sucrose 6.9%, Histidine, 1%, 50°C, 2 weeks) was “- (- dissolved)”. For the same compound, the “Re-solubility after storage” value ([3]; Sucrose 7.9%, Histidine, 0.5%, 50°C, 2 weeks) was “+ (+ not dissolved (or deposited))”, the “Re-solubility after storage” value ([3]; Sucrose 9.6%, Histidine, 2%, 50°C, 2 weeks) was “- (- dissolved)” and the “Re-solubility after storage” value ([3]; Sucrose 9.6%, Sodium deoxycholate, 0.2%, 25°C, 2 months) was “+ (+ not dissolved (or deposited))”. For the same compound, the “Re-solubility after storage” value ([3]; Sucrose 9.6%, Sodium deoxycholate, 0.5%, 25°C, 2 months) was “- (- dissolved)”, the “Re-solubility after storage” value ([3]; Sucrose 9.6%, Sodium deoxycholate, 0.5%, 25°C, 4 months) was “- (- dissolved)” and the “Re-solubility after storage” value ([3]; Sucrose 9.6%, Sodium deoxycholate, 1%, 25°C, 2 months) was “- (- dissolved)”. The “Re-solubility after storage” value ([3]; Sucrose 9.6%, Sodium deoxycholate, 1%, 25°C, 4 months) was “- (- dissolved)”, the “Re-solubility after storage” value ([3]; Sucrose 9.6%, Sodium deoxycholate, 2%, 25°C, 2 months) was “- (- dissolved)” and the “Re-solubility after storage” value ([3]; Sucrose 9.6%, Sodium deoxycholate, 2%, 25°C, 4 months) was “- (- dissolved)”. The “Re-solubility after storage” value ([3]; Sucrose 19.2%, Sodium deoxycholate, 0.1%, 25°C, 2 months) was “+ (+ not dissolved (or deposited))”, the “Re-solubility after storage” value ([3]; Sucrose 19.2%, Sodium deoxycholate, 0.2%, 25°C, 2 months) was “+ (+ not dissolved (or deposited))” and the “Re-solubility after storage” value ([3]; Sucrose 19.2%, Sodium deoxycholate, 0.5%, 25°C, 2 months) was “+ (+ not dissolved (or deposited))”. The “Re-solubility after storage” value ([3]; Sucrose 19.2%, Sodium deoxycholate, 1%, 25°C, 2 months) was “+ (+ not dissolved (or deposited))” and the “Re-solubility after storage” value ([3]; Sucrose 19.2%, Sodium deoxycholate, 2%, 25°C, 2 months) was “+ (+ not dissolved (or deposited))”.

Source: patent EP1016409B1, “FREEZE DRIED COMPOSITION COMPRISING GLYCOSPHINGOLIPIDS” (KIRIN BEER KABUSHIKI KAISHA, priority 1997, dated 1998)
